We go through 12 molecules from paper PMC5859250, “Contribution of transformation products towards the total herbicide toxicity to tropical marine organisms” (Scientific Reports, 2018).

A short description of the data set: Herbicide degradation in outdoor tanks with coastal seawater and sediment (330 d). Format: physicochemical. To be noted: day 330; in tank of the parent herbicide; measured or estimated. The text has this:
Photosystem II herbicides/transformation product solutions were produced by adding herbicides to seawater within separate 120 l outdoor fibreglass tanks, in the presence of natural coastal sediments (further details can be found in Mercurio 2016)[36]. […] The tanks used were previously described in Mercurio et al.[8], with treatment water being partially shaded (70%) and exposed to a maximum of 700 µmol photons m^−2s^−1 over the course of the experiment. The application of a natural diurnal light regime and coastal sediment were previously shown to increase the rates of PSII herbicide degradation and represent more natural conditions than those used in standard degradation tests[8],[36]. Evaporation was minimised with loose-fitting clear acrylic lids and the water continuously circulated using Turbelle Nanostream pumps. Prior to every sampling period evaporation losses were replenished with equal volumes of MilliQ water. The average temperature was 25.7 °C with a range of 15.6–36.6 °C over the course of the study. Unfiltered coastal seawater and sediments were collected from the intertidal zone adjacent to the Australian Institute of Marine Science (19°16′S, 147°03′E), Cape Cleveland, QLD. The sediments were prepared one week prior to use by sieving (>2 mm removed) and thorough mixing. Each tank contained 5 kg of sediment. Physical and chemical information on the seawater and sediments used the treatments can be found in SOM Table 1.
The 20 tanks included replicates for control seawater (n = 4) and the PSII herbicides diuron (n = 4), atrazine (n = 3), simazine (n = 3), hexazinone (n = 3), and ametryn (n = 3). Herbicide treatments and replicates were randomized among tanks. The herbicides were purchased from Sigma Aldrich (>95% purity) and were introduced at ~1 mg l^−1 to enable direct chemical and toxicological testing of the herbicide transformation product mixtures without additional concentration steps. […] The same concentration was used in the controls. Sample collection, internal standard addition, and analytical techniques (HPLC-MS/MS using an AB/Sciex API5500Q mass spectrometer equipped with an electrospray interface and coupled to a Shimadzu Prominence HPLC system) were as previously reported[7],[36]. […] Individual replicates were analysed using HPLC/TripleTOF mass spectrometry for possible transformation products as described in Mercurio 2016[36]. Briefly, 0.2 µm-filtered samples were directly injected into an ABSciex API5600+ Triple TOF mass spectrometer (ABSciex, Concord, Ontario, Canada) equipped with an electrospray (TurboV) interface coupled to a Shimadzu Nexera HPLC system (Shimadzu Corp., Kyoto, Japan). Separation was achieved using a 4 micron 50 × 2.0 mm Phenomenex Synergi Fusion RP column (Phenomenex, Torrance, CA) run at 45 °C, and a flow rate of 0.4 mL min^−1 with a linear gradient starting at 8% B for 0.5 minutes, ramped to 100% B in 8 minutes then held at 100% for 2.0 minutes followed by equilibration at 8% B for 2.5 minutes (A = 1% methanol in HPLC grade water, B = 95% methanol in HPLC grade water, both containing 0.1% acetic acid). The mass spectrometer was operated in positive ion SWATH mode. Briefly this mode comprises a TOF scan of 50 millisecond duration followed by small segments of the mass range being transmitted through the quadrupole, fragmented in the collision cell and full TOF mass spectra taken of the transformation products. Data from these experiments was examined using the Masterview software (ABSciex).
Potential transformation products identified using TOF mass spectrometry and other potential transformation products identified from literature were then re-examined by HPLC/ triple quadrupole mass spectrometry using multiple reaction monitoring. Product ions used were as identified from QTOF data or from literature references and parameters such as collision energy optimised by repeated injections of samples for compounds detected. […]
For the molecule `CNC(=O)Nc1ccc(Cl)c(Cl)c1` [DCPMU, 3-(3,4-dichlorophenyl)-1-methylurea], the Transformation product concentration was 236 µg/L. With `CCNc1nc(O)nc(NCC)n1` [Simazine hydroxy, hydroxy simazine], the Transformation product concentration is 45 µg/L.

hexazinone oxy: the Transformation product concentration is 26 µg/L.

As to `CSc1nc(N)nc(NC(C)C)n1` [Ametryn desethyl, ametryn desethyl], the Transformation product concentration was 23 µg/L. As to `CCNc1nc(NC(C)C)[nH]c(=O)n1` [Atrazine hydroxy, hydroxy atrazine], the Transformation product concentration was 30 µg/L. The entry for `CCNc1nc(N)nc(SC)n1` [Ametryn desisopropyl, ametryn desisopropyl] is “BDL”. In the case of `CCNc1nc(NC(C)C)[nH]c(=O)n1` [Ametryn hydroxy, hydroxy ametryn], the Transformation product concentration was 188 µg/L. The figure for hexazinone hydroxy is 5.4 µg/L; for `CNc1nc(=O)n(C2CCCCC2)c(=O)n1C` [Hexazinone desmethyl, hexazinone desmethyl] it is 91 µg/L; for `CCNc1nc(N)nc(Cl)n1` [Desethyl simazine, desethyl simazine] it is 79 µg/L. With `NC(=O)Nc1ccc(Cl)c(Cl)c1` [DCPU, 3,4-dichlorophenylurea] the figure was 85 µg/L; with simazine amine, 31 µg/L.
